Here are results for 5 molecules from paper PMC7992063 (ACS Omega, 2021).

Entries after “also recorded” stand apart in the source; their conditions may differ. Read-outs that look alike come from different tables or passages of the source.

For data set [1], the system named is murine hepatitis virus (MHV). In words: microbe, parasite or virus in culture. Format: cell-based. Conditions: Murine coronavirus.
In data set [2] the test system is Vero cells. The conditions noted are these: cited from earlier work.
Data set [3] concerns the target EBOV glycoprotein. Conditions: cited from earlier work.
The test system of data set [4] is SARS-CoV-2 (Strain USA_WA1/2020). In words: microbe, parasite or virus in culture. Format: cell-based. Conditions: Severe acute respiratory syndrome coronavirus 2, Caco-2, 72 h.
In data set [5] the test system is HCoV 229E. The format is cell-based, human coronavirus 229E.
Data set [6] deals with SARS-CoV-2-nLuc. As to the kind of experiment: microbe, parasite or virus in culture. The format is cell-based. The conditions noted are these: Severe acute respiratory syndrome coronavirus 2, A549-ACE2.
Data set [7] deals with SARS-CoV-2 (Strain USA_WA1/2020). As to the kind of experiment: microbe, parasite or virus in culture. The format is cell-based.
Data set [8] can be described thus: in vitro. The conditions noted are these: human.
The test system of data set [9] is Calu-3 cells. Conditions: cited from earlier work.
Data set [10] relates to SARS-CoV-2. The format is cell-based.
The test system of data set [11] is SARS-CoV-2 (isolate USA WA1/2020). In words: microbe, parasite or virus in culture. Format: cell-based. The conditions noted are these: for IC50: Severe acute respiratory syndrome coronavirus 2, Calu-3, read-out: IC50 (EC50), infection (dsRNA+ cells/total cell number).
Data set [12] has as its system Vero 76 cells. Conditions: African green monkey.
Data set [13] is described as follows: in vitro. Conditions: African green monkey.
In data set [14] the test system is rVSV-SARS-CoV-2 S. The format is cell-based.
For data set [15], the target named is SARS-CoV-2 spike receptor binding domain (RBD) (Severe acute respiratory syndrome coronavirus 2, UniProt P0DTC2).
The test system of data set [16] is SARS-CoV-2 pseudovirus. Conditions: mouse, in vivo; cited from earlier work.
The subject of data set [17] is SARS-CoV-2. The conditions noted are these: cited from earlier work.
Data set [18] has as its target spike RBD. The conditions noted are these: read-out: affinity for spike RBD; cited from earlier work.
The test system of data set [19] is SARS-CoV-2. Conditions: cited from earlier work. This is another data set of the same source.
Data set [20] relates to SARS-CoV-2. Format: cell-based. The source holds these as a separate data set.
Data set [21] has as its system lysosomal pH. Conditions: read-out: IC50, lysosomotropic; cited from earlier work.
Data set [22] relates to SARS-CoV-2. In words: microbe, parasite or virus in culture. Format: cell-based.
Data set [23] deals with SARS-CoV-2. The format is cell-based. The conditions noted are these: 10 μM; 24 h.
The mark [24] stands for this setting: Severe acute respiratory syndrome coronavirus 2, Vero 76.

On to `COc1ccc2nc3cc(Cl)ccc3c(Nc3cc(CN4CCCC4)c(O)c(CN4CCCC4)c3)c2n1` [pyronaridine, 4-[(7-chloro-2-methoxybenzo[b][1,5]naphthyridin-10-yl)amino]-2,6-bis(1-pyrrolidinylmethyl)phenol phosphate (1:4)], for which the IC50 in data set [1] turned out to be 2.75 µM; in data set [6], 0.198 µM. Further, the CC50 in [2] was 37.1 µM; in data set [8] it was 51.6 µM; in data set [9], 43.1 µM; in data set [12], 3.85 µM; in data set [13], 3.52 µM. Also, the Kd in [3] was 7.34 µM. In [4], this molecule returned an EC90 of 5.49 µM. Besides, the “decrease of virus titer” value in data set [5] is 2.83 logTCID50/mL. For the same molecule, the concentration giving a half-maximal response (EC50) in data set [7] is more than 3.85 µM; in data set [7] (setting [24]), more than 3.52 µM. Also, in [7], the “activity against SARS-CoV-2 in Vero 76” value is “no activity”. Further, the “activity against SARS-CoV-2 in Vero E6” value in data set [10] is on record as “no activity; also recorded: no inhibition”. The “activity against SARS-CoV-2 in Calu-3” value in data set [11] was “no activity”. For the same molecule, in [14], the “activity in VSV-pseudotype neutralization assay” value was “no measurable activity”. For the same molecule, the neutralization in data set [14] is reported as less than 50%. Also, the “weaker affinity for spike RBD compared to ACE2” value in data set [15] was 20–40 times.

For `CCN(CC)CCCC(C)Nc1c2ccc(Cl)cc2nc2ccc(OC)cc12` (stereo not shown) [quinacrine], the infected cells result in data set [16] is recorded as “significant decrease”. For the same molecule, the IC50 was 2.3 µM in data set [1] and less than 0.2 µM in data set [6]. Further, the Kd in [3] was 7.55 µM. Further, the EC50 in [17] was 2.83 µM; in data set [7], more than 6.87 µM; in [7] (setting [24]), more than 7.33 µM. Also, in data set [4], the EC90 worked out at 10.5 µM. Besides, the “decrease of virus titer” value in data set [5] was found to be 3.9 logTCID50/mL. In data set [7], the “activity against SARS-CoV-2 in Vero 76” value is listed as “no in vitro activity”. The CC50 in data set [8] came to 229 µM; in data set [12] it was 6.87 µM; in data set [13] it was 7.33 µM. Also, the “activity against SARS-CoV-2 in Vero E6” value in data set [10] is recorded as “no in vitro activity; also recorded: no inhibition”. The “activity against SARS-CoV-2 in Calu-3” value in data set [11] was “no in vitro activity”. In data set [15], the “binding to spike RBD” value is on record as “did not demonstrate reproducible binding”.

For ACE2, in [18], the Kd is approximately 0.015 µM.

On to `CCN(CC)CCOc1ccc2c(c1)C(=O)c1cc(OCCN(CC)CC)ccc1-2` [tilorone], for which the IC50 is approximately 20 µM in data set [1]; 4 µM in data set [19]; 0.18 µM in [6]; approximately 4 µM in [21]; approximately 9 µM in data set [22] (Severe acute respiratory syndrome coronavirus 2, Calu-3, 48 h); 10.8 µM in data set [11]. Also, in data set [3], the Kd is 0.73 µM. Besides, in data set [4], the concentration for an effect of 90% (EC90) turned out to be 29 µM. Moreover, the “inhibition of HCoV-229E” value in data set [5] was “did not show significant inhibition”. Besides, in data set [7] (setting [24]), the EC50 was 6.62 µM. Also, the values for the CC50 in [8] and in [13] were 111 µM and 49.6 µM, respectively. Moreover, the antiviral activity entry in data set [20] was “did not show antiviral activity”. Further, the “activity against SARS-CoV-2 in Vero E6” value in [10] is “no inhibition”. For the same molecule, the “activity in VSV-pseudotype neutralization assay” value in [14] is “no measurable activity”. This molecule registered a neutralization in data set [14] of less than 50%. In addition, the “weaker affinity for spike RBD compared to ACE2” value in [15] is recorded as 20–40 times.

In the case of `CCC(CC)COC(=O)[C@H](C)N[P@](=O)(OC[C@H]1O[C@@](C#N)(c2ccc3c(N)ncnn23)[C@H](O)[C@@H]1O)Oc1ccccc1` [remdesivir], in data set [22] (Severe acute respiratory syndrome coronavirus 2, Calu-3, read-out: inhibition PFU/mL), the inhibition at 0.6 µM was approximately 100%. Besides, the IC50 in [11] turned out to be 0.016 µM. The “inhibition of SARS-CoV-2, cell-associated viral RNA levels” value in [23] is recorded as approximately 50%.

A word on the EC90: it is the concentration at which the effect reaches the 90% level. By EC50 is commonly meant the concentration that produces a half-maximal response.
